Data on 1 substance can be found in patent US11504425B2, “Amphiphilic oligodeoxynucleotide conjugates as adjuvant enhancers” (WAYNE STATE UNIVERSITY, priority 2019, dated 2022).

One series has as its system human PBMC. As to the kind of experiment: Cytokine secretion by human PBMC (ELISA). Type of series: cell-based. Conditions: 24 h. As to the method:
Whole blood was obtained from the Red Cross, where healthy volunteers had provided informed consent to donate blood. Peripheral blood mononuclear cells (PBMC) were isolated by density gradient centrifugation using Histopaque-1077 (Sigma-Aldrich). The mononuclear cells were washed twice with cold PBS (1×) and resuspended in completed RPMI-1640 supplemented with 10% FBS and 1% penicillin/streptomycin. PBMC were seeded at 2×10^6/ml in 200 μL in a 96-well plate.
(§1) Supernatants collected from splenocytes suspension or human PBMC suspension after incubation were separately analyzed for IL-6, IL-12p40, TNF-α, and IFN-α by ELISA following manufacturer's instructions.
Background: An ELISA detects its analyte on a solid surface through an enzyme-linked reagent.

In a further series the target is T1, human TLR8 (hTLR8) (Homo sapiens, UniProt Q9NR97).
T1 construct: host or cells: HEK-Blue-hTLR8 (HEK293)
T1 sequence (Q9NR97 27-1041): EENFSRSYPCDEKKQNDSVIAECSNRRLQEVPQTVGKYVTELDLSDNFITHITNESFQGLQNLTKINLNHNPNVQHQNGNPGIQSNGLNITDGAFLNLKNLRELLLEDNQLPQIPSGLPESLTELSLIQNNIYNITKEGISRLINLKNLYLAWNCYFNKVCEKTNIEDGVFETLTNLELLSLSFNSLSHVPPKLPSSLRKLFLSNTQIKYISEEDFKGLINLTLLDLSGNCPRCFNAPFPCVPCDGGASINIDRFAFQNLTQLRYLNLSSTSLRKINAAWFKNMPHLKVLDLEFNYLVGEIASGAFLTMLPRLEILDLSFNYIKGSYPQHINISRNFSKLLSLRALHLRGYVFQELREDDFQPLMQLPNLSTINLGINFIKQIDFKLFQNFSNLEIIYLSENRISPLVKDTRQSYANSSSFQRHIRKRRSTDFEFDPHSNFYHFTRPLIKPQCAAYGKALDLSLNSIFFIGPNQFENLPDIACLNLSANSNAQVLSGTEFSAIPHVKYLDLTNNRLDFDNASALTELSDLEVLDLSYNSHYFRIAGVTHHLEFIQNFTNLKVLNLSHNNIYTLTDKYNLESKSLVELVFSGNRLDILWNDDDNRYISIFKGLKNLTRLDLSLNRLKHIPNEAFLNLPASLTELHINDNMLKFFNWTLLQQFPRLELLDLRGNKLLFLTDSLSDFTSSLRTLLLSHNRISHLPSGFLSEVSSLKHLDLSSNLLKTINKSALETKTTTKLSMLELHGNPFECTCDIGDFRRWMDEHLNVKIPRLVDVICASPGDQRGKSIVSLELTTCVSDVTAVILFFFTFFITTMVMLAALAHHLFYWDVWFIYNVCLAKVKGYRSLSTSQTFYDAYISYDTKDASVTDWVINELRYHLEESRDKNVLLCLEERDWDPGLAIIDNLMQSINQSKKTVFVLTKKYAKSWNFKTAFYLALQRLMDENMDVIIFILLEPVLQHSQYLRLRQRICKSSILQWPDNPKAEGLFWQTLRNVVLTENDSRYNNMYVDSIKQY
Kind of series: HEK hTLR8 reporter cells NF-κB/SEAP. Conditions: 1 μg/ml or indicated concentrations TLR8-506 + 1 μM ODN, 24 h. Type of series: cell-based. On the procedure:
(§2) HEK-Blue™-mTLR7, mTLR8, hTLR7, hTLR8, and RAW-Blue™ cells were purchased from InvivoGen and were used to evaluate bioactivities of lipo ODNs and TLR 7/8 ligands in vitro. All these cell lines were cultured with DMEM supplemented with 10% FBS, 1% P/S and 100 μg/mL Normocin at 37° C. with 5% CO2. […] After incubating for 24 h, SEAP levels were quantified by developing supernatants with QuantiBlue™ substrate for 1 h and reading absorption at 620 nm, following manufacturer's instructions.
HEK293 cells transfected with human TLR7 or 8 were used. The cells were stimulated with IMQ in the presence of several inhibitory oligonucleotides reported in the literature. […] In contrast, all the unmodified ODNs maintained their inhibitory function, reducing the NF-κB secretion to basal levels (FIG. 8A). We then plotted the IMQ dose response curve in human TLR-7 transfected HEK293 cells.

Series [1] has as its system TLR7-mediated NF-κB activation in Raw-Blue reporter cells. Kind of series: Raw-Blue NF-κB/SEAP reporter stimulation with TLR7 ligands. It is filed as cell-based, murine. As to the method:
as §2
Following subcutaneous injection, lipid-modified oligonucleotides efficiently accumulated in the draining lymph nodes by binding and trafficking with endogenous albumin protein (Liu et al., Nature 507, 519-522, 2014; Yu et al., Pharmaceutical Res. 35: 56, 2018). Inspired by that prior work, the current study was aimed to take advantage of lipid functionalization in other oligonucleotide-based TLR inhibitors to further expand the pool of lipo suppressive ODNs. The therapeutic efficacy of lipid-modified IRS 954 in suppressing TLR7-mediated immune activation and alleviating the severity of SLE was investigated. Imiquimod (IMQ; FIG. 1A) was first used to stimulate TLR7-mediated immune activation in Raw-Blue reporter cells. For the initial experiments, Raw Blue cells-a murine RAW 264.7 macrophage cell line which expresses secreted embryonic alkaline phosphatase (SEAP) under the control of an NF-κB and AP-1, were used. Raw Blue cells express many toll-like receptors, including TLR-7, TLR-8, and TLR-9. The immunosuppressive capability of unmodified or lipo IRS 954 was determined by quantifying the level of TLR7-induced NF-κB activation.

The test system of the next series is Murine splenocytes. Kind of series: Cytokine secretion by murine splenocytes (ELISA). It is filed as cell-based, mice. Conditions: 2 μM IMQ + 1 μM ODN, 24 h. On the procedure:
Spleens were freshly collected from mice and were cut into small pieces. A plunger end of a syringe was used to further disassemble spleen tissues into single cells. The cell suspension was subsequently filtered and washed. Lysing buffer was utilized to remove excessive red blood cells. After two washes, 95% viability of splenocytes was confirmed by trypan blue. Splenocytes were resuspended in RPMI-1640 supplemented with 10% FBS and 1% P/S. Splenocytes were seeded at 1×10^6 cells/ml in 200 μL in a 96-well plate.
as §1

A further series has as its system Raw-Blue reporter cells. As to the kind of experiment: Cellular uptake and confocal imaging in Raw-Blue cells. It is filed as cell-based, murine. On the procedure:
DC 2.4 cells were cultured with RPMI-1640 supplemented with 10% FBS and 1% P/S; Raw-Blue cells were cultured as previously described. […] After incubation, cells were washed twice with 1×PBS by centrifuge at 800×g for 5 min prior to flow cytometry quantification. To visualize in vitro cellular uptake, DC 2.4 cells or Raw-Blue cells were cultured and incubated under the same experimental conditions and were subjected to confocal imaging by Zeiss LSM 510 microscope. […] Inhibitors: 5 μg/mL Filipin; 50 μM EIPA; 300 mM sucrose were tested.

On to 5′-TTTTTTTTTTTTTTTTTTTT-3′ [T20], for which the IFN-α production entry in the series on human PBMC (CL264 + ODN) is listed as “completely abrogated IFN-α production”. Further, the IL-12 production entry in the series on human PBMC (TLR8-506 + ODN) is on record as “able to augment the IL-12 production”. Further, the “TLR8-506 stimulation of hTLR8 cells in the presence of the ODN” value in the series with human TLR8 (hTLR8) is listed as “enhanced the stimulation of TLR8-506”. Moreover, the “lowering of IMQ-induced NF-κB activation” value in series [1] (2 μM IMQ + 1 μM ODN, 24 h) came to 2 folds. In addition, in series [1] (2 μM IMQ + 5 μM T20, 24 h), the “IMQ-elicited activation with high-dose ODN” value is recorded as “significantly enhanced inhibition in IMQ-elicited activation”. The “overall NF-κB stimulation by IMQ, CL075, R848 in the presence of the ODN” value in series [1] (ligands at indicated concentrations + 1 μM ODN, 24 h) is given as “suppressive effect on all the TLR ligands tested”. Further, in the series with Murine splenocytes, the “IFN-α production induced by IMQ” value is given as “decreased the production of IFN-α”, the IL-6 production entry is given as “significantly lower level of pro-inflammatory cytokines compared with IMQ alone”, the IL-12p40 production result is recorded as “significantly lower level of pro-inflammatory cytokines compared with IMQ alone” and the TNF-α production result is on record as “significantly lower level of pro-inflammatory cytokines compared with IMQ alone”. The colocalization with lysosomes result in the series on Raw-Blue reporter cells (1 μM FAM-labeled ODN, FBS-supplemented and FBS-free, LysoTracker Red) is “colocalized with lysosomes regardless of the presence of FBS”. Further, in the series on Raw-Blue reporter cells (2 μM FITC-IMDQ + 1 μM ODN), the “effect on cellular uptake of FITC-labeled IMDQ” value is reported as “neither T20 nor lipo T20 increased cellular uptake”.
